Key:
Format in all cases: cell-based
[1] = system: 3D model of human airway epithelium; assay: Prostaglandin E2 ELISA on basal medium of bradykinin-stimulated 3D airway epithelia (MucilAir, MatTek)
Method: (§1) Various compositions were tested for their ability to protect a 3D model of human airway epithelium, constituted with primary human epithelial cells freshly isolated from nasal (MucilAir™ nasal pool), or tracheal or bronchial biopsies (MatTek PE-200-6.5). MucilAir™ and MatTek tissues are reconstituted human 3D tissue from airways and lung surgical pieces, fully differentiated, pseudostratified in vitro epithelium. MucilAir™_Pool is of nasal polyp origin and reconstituted with a mixture of cells isolated from 14 different donors. […] MatTek tissues are from tracheo-bronchial origin. The respiratory epithelium lining the nose and throat have very similar histology and architecture. These two different models reconfirm that models from different origin have similar responses to treatment in the case that one model may have more underlying inflammation, or other variability with respect to its retrieval than another.
(§2) Compositions were formulated with various concentrations of acetylsalicylic acid (ASA 0.6 mg/ml or ASA 6 mg/ml) in an aqueous saline solution vehicle such as 0.9% NaCl, 1.25 mM CaCl2, 10 mM HEPES. 10 μL of each formulation was added apically either to the MucilAir™ or MatTek tissues. Formulations were either added 10 minutes after activation of an inflammatory response in the media (FIGS. 1A-B, 3A, 4A), or 5 minutes before activation of an inflammatory response in the media (FIGS. 2A-B, 3B, 4B). Due to the rate of saliva production and concomitant dilution of acetylsalicylic acid on the mucosa, administration of each concentration in vitro correlates to a 10× concentration in product form. For example, 0.6 mg/ml ASA in the in vitro measurements corresponds administration of 6 mg/ml ASA in compositions, and 6 mg/ml […] corresponds to administration of 60 mg/ml in compositions.
(§3) Typically, the inflammatory cytokine bradykinin stimulates the prostaglandin pathway (through arachidonic acid) which then stimulates IL-8, another inflammatory cytokine. […] The inflammatory response of the prostaglandin pathway was stimulated through the addition of 10 μL of 25 mg/ml bradykinin protein was applied to the apical side of the MucilAir™ media.
(§4) Four hours following bradykinin application various measurements of the inflammatory response were measured. Epithelia were washed twice with MucilAir™ culture medium in order to clean the inoculum. Liquid aliquots from the basal medium were collected and stored at −80° C. for future study.
(§5) Prostaglandin E2 or IL-8 enzyme-linked immunosorbent assays (ELISA) were performed on the liquid aliquots from the basal medium to determine the amount of prostaglandin E2 produced as a result of inflammatory conditions initiated in each test condition. […] Although, acetylsalicylic acid is typically administered in doses greater than these measured, this dosage increased the inflammatory response.
MatTek (tracheal bronchial tissue) or MucilAir (nasal polyps) 3D inserts were placed in pre-warmed media corresponding to each cell system and incubated for 15 minutes at 37° C. L of saliva (negative control) or treatment was added to the apical surfaces. 5 minutes later, 10 μL of saliva or bradykinin was added to the apical side as well. Bradykinin was obtained from Tocris or New England Peptide (NEP) as indicated. At 4 hours, samples from the basal media were collected and frozen at −80° for PGE-2 ELISA measurements. At 24 hours, the inserts were moved to fresh basal media (corresponding to each cell system) and 200 L of media were added to each apical side for TEER analysis as described previously. The plate was then incubated for 5 minutes. Following TEER measurements, the apical solution was removed and 10 μL of each treatment (or saliva) was added to the apical surface. No bradykinin was added. TEER was measured again at 48 hours. Additionally, at 24 hours and 48 hours, basal media was collected and frozen for IL-8 and LDH analyses. […]

[2] = system: 3D model of human airway epithelium; assay: IL-8 ELISA on basal medium of bradykinin-stimulated 3D airway epithelia (MucilAir, MatTek)
Method: as §1, §2, §3, §4, §5
MatTek (tracheal bronchial tissue) or MucilAir (nasal polyps) 3D inserts were placed in pre-warmed media corresponding to each cell system and incubated for 15 minutes at 37° C. L of saliva (negative control) or treatment was added to the apical surfaces. 5 minutes later, 10 μL of saliva or bradykinin was added to the apical side as well. Bradykinin was obtained from Tocris or New England Peptide (NEP) as indicated. At 4 hours, samples from the basal media were collected and frozen at −80° for PGE-2 ELISA measurements. […] TEER was measured again at 48 hours. […]

[3] = system: 3D model of human airway epithelium; details: 48 h, 6 mg/ml
Method: as §1, with “another. […]” for “another.”
Tissue integrity was also monitored using transepithelial electrical resistance (“TEER”) measurements. […]
For TEER measurements, 200 μL of warm MucilAir™ media or MatTek TEER buffer was applied on the apical side of each insert. […] The resistance (Ω) is read on the Voltohmmeter and the TEER value was calculated with the following formula: TEER (Ω·cm^2)=(resistance value (Ω)−100 (Ω))×0.33 (cm^2). […]

[4] = dose above the therapeutic window
[5] = overall statement, concentration not given

TEER (barrier function of the epithelia) [3]: < 100 Ω·cm^2
Structure (SMILES): CC(=O)Oc1ccccc1C(=O)O [ASA, acetylsalicylic acid]
prostaglandin E2 production (inflammatory response) versus positive control ([1]; 0.6 mg/ml ASA added 5 minutes before bradykinin (FIGS. 2A, 2B)): did inhibit inflammation in a statistically significant manner | prostaglandin E2 production (inflammatory response) versus positive control ([1]; 0.6 mg/ml ASA added 10 minutes after bradykinin, measured 4 hours after bradykinin (FIGS. 1A, 1B)): resulted in an anti-inflammatory response | prostaglandin E2 production (inflammatory response) versus positive control ([1]; 6 mg/ml ASA added 5 minutes before bradykinin (FIG. 2A)): no statistical significance with respect to positive control | prostaglandin E2 production (inflammatory response) versus positive control ([1]; 6 mg/ml ASA added 10 minutes after bradykinin, measured 4 hours after bradykinin (FIG. 1A)): increased the inflammatory response in a statistically significant matter | PGE2 relative to maximum bradykinin-induced level [1, 4]: increased | PGE-2 levels (bradykinin induced) [1, 5]: significantly decreasing | IL-8 concentration ([2]; 0.6 mg/ml ASA, therapeutic and prophylactic modalities (FIGS. 4A, 4B)): A similar result was not observed | IL-8 concentration ([2]; 6 mg/ml ASA, prophylactic modality (added before bradykinin, FIG. 4B)): significantly greater | IL-8 concentration ([2]; 6 mg/ml ASA, therapeutic modality (added after bradykinin, FIG. 4A)): significantly greater | IL-8 relative to maximum bradykinin-induced level [2, 4]: increased | levels of IL-8 protein [2, 5]: did not appreciably decrease
